Activity calls are given as the source filed them. The rule behind the calls is not given here.
Experiments:
[1] = mRNA capping efficiency after 2 hrs by gel shift assay relative to control
Escherichia phage T7 = test: Effect on Enterobacteria phage T7 RNA polymerase RNA transcription after 2 hrs
HeLa = test: Translation efficiency in human HeLa cells assessed as luciferase activity; type: functional, cell-based

Activity [1]	Activity (Escherichia phage T7)	SMILES	Activity (HeLa)
56%	Active	C[n+]1cn([C@@H]2O[C@H](COP(=O)(O)OP(=O)([O-])OP(=O)([O-])OC[C@@H]3O[C@H](n4c[n+](C)c5c(=O)[nH]c(N)nc54)[C@@H](O)[C@H]3O)[C@@H](O)[C@H]2O)c2nc(N)[nH]c(=O)c21	Active
51%	Active	CO[C@@H]1[C@H](O)[C@@H](n2c[n+](C)c3c(=O)[nH]c(N)nc32)O[C@H]1COP(=O)([O-])OP(=O)(O)OP(=O)([O-])OC[C@H]1O[C@@H](n2c[n+](C)c3c(=O)[nH]c(N)nc32)[C@H](O)[C@@H]1O	Active
61%		C[n+]1cn([C@H]2O[C@@H](COP(=O)([O-])OP(=O)(O)OP(=O)(O)OC[C@H]3O[C@@H](n4cnc5c(=O)[nH]c(N)nc54)[C@H](O)[C@@H]3O)[C@H](O)[C@@H]2O)c2nc(N)[nH]c(=O)c21	
52%	Active	CO[C@@H]1[C@H](O)[C@@H](n2c[n+](C)c3c(=O)[nH]c(N)nc32)O[C@H]1COP(=O)([O-])OP(=O)(O)OP(=O)(O)OC[C@H]1O[C@@H](n2cnc3c(=O)[nH]c(N)nc32)[C@H](O)[C@@H]1O	Active

From ChEMBL document CHEMBL1140841, “Synthesis and biological evaluation of trimethyl-substituted cap analogs” (Bioorg Med Chem Lett, 2008)
